# In patent US9428464B2, “Kynurenine-3-monooxygenase inhibitors, pharmaceutical compositions, and methods of use thereof” (CHDI Foundation, Inc., priority 2011, dated 2016):
# Values joined by “and” are separate entries in the source; they are usually repeats but may differ in a detail not shown here. Equal values may be shown once.
# Tested on: KMO
# Experiment: KMO activity assay: L-Kynurenine hydroxylation to 3-Hydroxy-Kynurenine, quantified by LC/MS
# Format: biochemical
# Conditions: compound at 10 uM; footnote: some portion of activity of amides may be due to contribution of acid precursor
# Description: A generalized procedure for monitoring L-Kynurenine (KYN) hydroxylation to form product 3-Hydroxy-Kynurenine (3OH-KYN) by LC/MS is described below. Product is quantified by multiple reaction monitoring using MS.
# A method of monitoring L-Kynurenine (KYN) hydroxylation to form product 3-Hydroxy-Kynurenine (3OH-KYN) by LC/MS is described below. Product is quantified by multiple reaction monitoring.
# • Compound: Stock concentrations: 10 mM in 100% DMSO • Enzyme: KMO enzyme prepared at Evotec via mitochondria isolation from CHO-GST HIS KMO cells • Substrate: L-Kynurenine (Sigma: Cat #K3750) • [stock concentration: 10 mM in 100 mM potassium phosphate buffer, pH 7.4]
# A method of monitoring L-Kynurenine (KYN) hydroxylation to form 3-Hydroxy-Kynurenine (3OH-KYN) by LC/MS is described. Product is quantified by multiple reaction monitoring (MRM method).
row,SMILES,% Inhibition at 10 uM [%]
1,"CC1(C)CC(NC(=O)c2cc(-c3ccc(Cl)c(Cl)c3)ncn2)CC(C)(C)N1.Cl [6-(3,4-Dichloro-phenyl)-pyrimidine-4-carboxylic acid (2,2,6,6-tetramethyl-piperidin-4-yl)-amide hydrochloride salt]",99.59
2,"CC1(C)CC(NC(=O)c2cc(-c3ccc(Cl)c(Cl)c3)ncn2)CC(C)(C)N1 [6-(3,4-Dichloro-phenyl)-pyrimidine-4-carboxylic acid (2,2,6,6-tetramethyl-piperidin-4-yl)-amide]",100.11
3,"Cc1cc(C)c(NC(=O)c2cc(-c3ccc(Cl)c(Cl)c3)ncn2)c(C)c1 [6-(3,4-Dichloro-phenyl)-pyrimidine-4-carboxylic acid (2,4,6-trimethyl-phenyl)-amide]",70.84
4,"Cc1ccnc(C)c1NC(=O)c1cc(-c2ccc(Cl)c(Cl)c2)ncn1 [6-(3,4-Dichloro-phenyl)-pyrimidine-4-carboxylic acid (2,4-dimethyl-pyridin-3-yl)-amide]",85.37
5,"CN(CCN)C(=O)c1cc(-c2ccc(Cl)c(Cl)c2)ncn1.O=C(O)C(F)(F)F [6-(3,4-Dichloro-phenyl)-pyrimidine-4-carboxylic acid (2-amino-ethyl)-methyl-amide, trifluoro-acetic acid salt]",64.52
6,"CC(C)(O)CNC(=O)c1cc(-c2ccc(Cl)c(Cl)c2)ncn1 [6-(3,4-Dichloro-phenyl)-pyrimidine-4-carboxylic acid (2-hydroxy-2-methyl-propyl)-amide]",57.19
7,"Cc1cnc(NC(=O)c2cc(-c3ccc(Cl)c(Cl)c3)ncn2)c(C)n1 [6-(3,4-Dichloro-phenyl)-pyrimidine-4-carboxylic acid (3,5-dimethyl-pyrazin-2-yl)-amide]",97.84
8,"Cc1nsc(NC(=O)c2cc(-c3ccc(Cl)c(Cl)c3)ncn2)n1 [6-(3,4-Dichloro-phenyl)-pyrimidine-4-carboxylic acid (3-methyl-[1,2,4]-thiadiazol-5-yl)-amide]",100.16
9,"Cl.O=C(Nc1cccc(N2CCOCC2)c1)c1cc(-c2ccc(Cl)c(Cl)c2)ncn1 [6-(3,4-Dichloro-phenyl)-pyrimidine-4-carboxylic acid (3-morpholin-4-yl-phenyl)-amide hydrochloride salt]",99.76
10,"O=C(Nc1cccc(N2CCOCC2)c1)c1cc(-c2ccc(Cl)c(Cl)c2)ncn1 [6-(3,4-Dichloro-phenyl)-pyrimidine-4-carboxylic acid (3-morpholin-4-yl-phenyl)-amide]",100.15
11,"Cl.O=C(Nc1cccc(C2CNCCN2)c1)c1cc(-c2ccc(Cl)c(Cl)c2)ncn1 (centres unmarked) [6-(3,4-Dichloro-phenyl)-pyrimidine-4-carboxylic acid (3-piperazin-2-yl-phenyl)-amide hydrochloride salt]",96.58
12,"Cl.O=C(Nc1cccc(C2CCNCC2)c1)c1cc(-c2ccc(Cl)c(Cl)c2)ncn1 [6-(3,4-Dichloro-phenyl)-pyrimidine-4-carboxylic acid (3-piperidin-4-yl-phenyl)-amide hydrochloride salt]",69.06
13,"O=C(Nc1cc(C(F)(F)F)no1)c1cc(-c2ccc(Cl)c(Cl)c2)ncn1 [6-(3,4-Dichloro-phenyl)-pyrimidine-4-carboxylic acid (3-trifluoromethyl-isoxazol-5-yl)-amide]",101.875
14,"CN(C)C1(CNC(=O)c2cc(-c3ccc(Cl)c(Cl)c3)ncn2)CCOCC1.Cl [6-(3,4-Dichloro-phenyl)-pyrimidine-4-carboxylic acid (4-dimethylamino-tetrahydro-pyran-4-ylmethyl)-amide hydrochloride salt]",96.81
15,"O=C(NCC1(O)CCOCC1)c1cc(-c2ccc(Cl)c(Cl)c2)ncn1 [6-(3,4-Dichloro-phenyl)-pyrimidine-4-carboxylic acid (4-hydroxy-tetrahydro-pyran-4-ylmethyl)-amide]",74.49
16,"Cl.O=C(Nc1ccc(N2CCOCC2)cc1)c1cc(-c2ccc(Cl)c(Cl)c2)ncn1 [6-(3,4-Dichloro-phenyl)-pyrimidine-4-carboxylic acid (4-morpholin-4-yl-phenyl)-amide hydrochloride salt]",76.95
17,"O=C(Nc1ccc(N2CCOCC2)cc1)c1cc(-c2ccc(Cl)c(Cl)c2)ncn1 [6-(3,4-Dichloro-phenyl)-pyrimidine-4-carboxylic acid (4-morpholin-4-yl-phenyl)-amide]",101.19

row,SMILES,% Inhibition at 10 uM [%]
1,"Cl.O=C(Nc1ccc(N2CCNCC2)cc1)c1cc(-c2ccc(Cl)c(Cl)c2)ncn1 [6-(3,4-Dichloro-phenyl)-pyrimidine-4-carboxylic acid (4-piperazin-1-yl-phenyl)-amide hydrochloride salt]",93.13
2,"O=C(Nc1ccc(N2CCNCC2)cc1)c1cc(-c2ccc(Cl)c(Cl)c2)ncn1 [6-(3,4-Dichloro-phenyl)-pyrimidine-4-carboxylic acid (4-piperazin-1-yl-phenyl)-amide]",43.46
3,"Cc1nnc(CNC(=O)c2cc(-c3ccc(Cl)c(Cl)c3)ncn2)o1 [6-(3,4-Dichloro-phenyl)-pyrimidine-4-carboxylic acid (5-methyl-[1,3,4]oxadiazol-2-ylmethyl)-amide]",100.815
4,"O=C1CCC(NC(=O)c2cc(-c3ccc(Cl)c(Cl)c3)ncn2)N1 (centres unmarked) [6-(3,4-Dichloro-phenyl)-pyrimidine-4-carboxylic acid (5-oxo-pyrrolidin-2-yl)-amide]",93.08
5,"O=C1CC(NC(=O)c2cc(-c3ccc(Cl)c(Cl)c3)ncn2)CN1 (centres unmarked) [6-(3,4-Dichloro-phenyl)-pyrimidine-4-carboxylic acid (5-oxo-pyrrolidin-3-yl)-amide]",83.73
6,"CC(C)(C)c1nnc(NC(=O)c2cc(-c3ccc(Cl)c(Cl)c3)ncn2)o1 [6-(3,4-Dichloro-phenyl)-pyrimidine-4-carboxylic acid (5-tert-butyl-[1,3,4]oxadiazol-2-yl)-amide]",101.4
7,"O=C(Nc1nnc(C(F)(F)F)o1)c1cc(-c2ccc(Cl)c(Cl)c2)ncn1 [6-(3,4-Dichloro-phenyl)-pyrimidine-4-carboxylic acid (5-trifluoromethyl-[1,3,4]oxadiazol-2-yl)-amide]",102.78
8,"Cc1ccc(NC(=O)c2cc(-c3ccc(Cl)c(Cl)c3)ncn2)nn1 [6-(3,4-Dichloro-phenyl)-pyrimidine-4-carboxylic acid (6-methyl-pyridazin-3-yl)-amide]",77.125
9,"Cl.O=C(Nc1ccc(N2CCNCC2)nc1)c1cc(-c2ccc(Cl)c(Cl)c2)ncn1 [6-(3,4-Dichloro-phenyl)-pyrimidine-4-carboxylic acid (6-piperazin-1-yl-pyridin-3-yl)-amide hydrochloride salt]",87.82
10,"O=C(N[C@H]1c2ccccc2C[C@H]1O)c1cc(-c2ccc(Cl)c(Cl)c2)ncn1 [6-(3,4-Dichloro-phenyl)-pyrimidine-4-carboxylic acid ((1S,2R)-2-hydroxy-indan-1-yl)-amide]",97.78
11,"C[C@@H](NC(=O)c1cc(-c2ccc(Cl)c(Cl)c2)ncn1)c1ccccc1 [6-(3,4-Dichloro-phenyl)-pyrimidine-4-carboxylic acid ((R)-1-phenyl-ethyl)-amide]",101.25
12,"C[C@@H](NC(=O)c1cc(-c2ccc(Cl)c(Cl)c2)ncn1)c1cccnc1 [6-(3,4-Dichloro-phenyl)-pyrimidine-4-carboxylic acid ((R)-1-pyridin-3-yl-ethyl)-amide]",90.86
13,"C[C@H](CO)NC(=O)c1cc(-c2ccc(Cl)c(Cl)c2)ncn1 [6-(3,4-Dichloro-phenyl)-pyrimidine-4-carboxylic acid ((R)-2-hydroxy-1-methyl-ethyl)-amide]",97.775
14,"CC(NC(=O)c1cc(-c2ccc(Cl)c(Cl)c2)ncn1)[C@@H](C)O (stereo partly drawn) [6-(3,4-Dichloro-phenyl)-pyrimidine-4-carboxylic acid ((R)-2-hydroxy-1-methyl-propyl)-amide]",66.43
15,"C[C@@H](O)CNC(=O)c1cc(-c2ccc(Cl)c(Cl)c2)ncn1 [6-(3,4-Dichloro-phenyl)-pyrimidine-4-carboxylic acid ((R)-2-hydroxy-propyl)-amide]",100.71
16,"C[C@H](NC(=O)c1cc(-c2ccc(Cl)c(Cl)c2)ncn1)C(N)=O [6-(3,4-Dichloro-phenyl)-pyrimidine-4-carboxylic acid ((S)-1-carbamoyl-ethyl)-amide]",47.73
17,"CC[C@H](NC(=O)c1cc(-c2ccc(Cl)c(Cl)c2)ncn1)C(N)=O [6-(3,4-Dichloro-phenyl)-pyrimidine-4-carboxylic acid ((S)-1-carbamoyl-propyl)-amide]",87.6

# Same assay, conditions: compound at 10 uM; footnote: some portion of activity of amides may be due to contribution of acid precursor; 10 µM
row,SMILES,% Inhibition at 10 uM
1,"CC(=O)N1CC[C@H](NC(=O)c2cc(-c3ccc(Cl)c(Cl)c3)ncn2)C1 [6-(3,4-Dichloro-phenyl)-pyrimidine-4-carboxylic acid ((S)-1-acetyl-pyrrolidin-3-yl)-amide]",84.87% and 98.54%
